Data published in paper PMC6254361, “The properties of Msh2–Msh6 ATP binding mutants suggest a signal amplification mechanism in DNA mismatch repair” (The Journal of Biological Chemistry, 2018).

Biological target: T1, Msh2–Msh6 (Saccharomyces cerevisiae, UniProt P25847+Q03834, Q03834:K988A)
T1 sequence (P25847 1-964): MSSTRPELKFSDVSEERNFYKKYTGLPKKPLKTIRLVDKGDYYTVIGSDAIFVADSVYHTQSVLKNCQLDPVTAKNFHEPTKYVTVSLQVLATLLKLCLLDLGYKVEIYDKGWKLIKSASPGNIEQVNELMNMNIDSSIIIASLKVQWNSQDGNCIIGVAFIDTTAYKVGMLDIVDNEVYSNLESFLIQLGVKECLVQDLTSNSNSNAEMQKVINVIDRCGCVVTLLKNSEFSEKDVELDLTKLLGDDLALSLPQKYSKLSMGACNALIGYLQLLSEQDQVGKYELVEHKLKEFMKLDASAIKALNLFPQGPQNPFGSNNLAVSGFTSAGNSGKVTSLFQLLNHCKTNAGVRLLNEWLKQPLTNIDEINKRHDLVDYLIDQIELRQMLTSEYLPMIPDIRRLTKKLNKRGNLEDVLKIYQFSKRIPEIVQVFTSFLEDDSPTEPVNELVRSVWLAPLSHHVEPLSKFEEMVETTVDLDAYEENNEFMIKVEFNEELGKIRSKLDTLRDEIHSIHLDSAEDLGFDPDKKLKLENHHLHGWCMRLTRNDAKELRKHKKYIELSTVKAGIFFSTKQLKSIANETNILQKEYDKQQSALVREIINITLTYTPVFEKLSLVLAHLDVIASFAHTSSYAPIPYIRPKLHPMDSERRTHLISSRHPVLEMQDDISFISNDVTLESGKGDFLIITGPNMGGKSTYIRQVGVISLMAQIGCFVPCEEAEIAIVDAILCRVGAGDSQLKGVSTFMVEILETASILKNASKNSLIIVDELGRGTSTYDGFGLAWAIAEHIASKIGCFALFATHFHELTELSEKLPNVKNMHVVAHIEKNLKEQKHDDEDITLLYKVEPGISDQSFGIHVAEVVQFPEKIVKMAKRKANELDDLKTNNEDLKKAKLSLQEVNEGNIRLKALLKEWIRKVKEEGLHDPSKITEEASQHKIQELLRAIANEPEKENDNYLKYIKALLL
T1 sequence (Q03834 1-1242 K988A): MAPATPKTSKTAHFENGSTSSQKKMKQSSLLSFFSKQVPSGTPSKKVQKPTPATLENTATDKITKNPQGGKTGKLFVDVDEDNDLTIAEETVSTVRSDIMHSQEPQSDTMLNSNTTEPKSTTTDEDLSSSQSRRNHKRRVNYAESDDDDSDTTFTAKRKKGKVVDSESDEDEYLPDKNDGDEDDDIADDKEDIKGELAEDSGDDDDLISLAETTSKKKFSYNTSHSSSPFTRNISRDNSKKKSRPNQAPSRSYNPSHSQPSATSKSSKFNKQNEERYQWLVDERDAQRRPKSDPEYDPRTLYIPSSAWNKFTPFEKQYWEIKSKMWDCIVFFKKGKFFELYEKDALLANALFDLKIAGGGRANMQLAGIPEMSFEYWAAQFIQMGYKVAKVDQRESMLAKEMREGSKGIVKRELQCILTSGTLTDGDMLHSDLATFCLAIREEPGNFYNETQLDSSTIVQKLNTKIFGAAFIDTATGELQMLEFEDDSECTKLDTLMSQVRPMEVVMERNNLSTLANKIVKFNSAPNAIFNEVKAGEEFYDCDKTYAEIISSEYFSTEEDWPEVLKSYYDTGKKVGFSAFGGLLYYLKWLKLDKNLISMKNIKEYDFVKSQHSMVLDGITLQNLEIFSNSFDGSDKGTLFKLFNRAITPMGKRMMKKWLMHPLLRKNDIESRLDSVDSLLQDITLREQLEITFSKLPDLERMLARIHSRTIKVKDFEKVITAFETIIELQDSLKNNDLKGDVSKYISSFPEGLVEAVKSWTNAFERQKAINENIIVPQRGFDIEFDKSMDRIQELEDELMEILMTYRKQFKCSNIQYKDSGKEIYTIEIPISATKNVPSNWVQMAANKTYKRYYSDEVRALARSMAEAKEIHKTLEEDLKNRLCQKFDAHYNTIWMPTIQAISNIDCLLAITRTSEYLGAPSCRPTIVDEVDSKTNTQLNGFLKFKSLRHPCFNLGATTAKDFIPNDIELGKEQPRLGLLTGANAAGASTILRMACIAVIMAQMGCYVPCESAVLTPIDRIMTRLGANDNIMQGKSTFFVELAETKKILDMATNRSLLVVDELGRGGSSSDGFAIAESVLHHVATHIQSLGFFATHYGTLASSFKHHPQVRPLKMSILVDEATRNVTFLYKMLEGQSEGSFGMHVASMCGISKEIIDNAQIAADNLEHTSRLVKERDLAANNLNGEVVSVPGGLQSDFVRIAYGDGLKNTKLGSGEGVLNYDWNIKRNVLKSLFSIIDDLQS
Test: UV cross-linking of [γ-32P]ATP, SDS-PAGE, phosphorimaging
Assay type: binding
Conditions: labelled compound; no Mg2+, EDTA, pH 8, on ice; Msh2 site at 60 μM ATP, Msh6 site at 1 μM ATP

Nc1ncnc2c1ncn2[C@@H]1O[C@H](COP(=O)(O)OP(=O)(O)OP(=O)(O)O)[C@@H](O)[C@H]1O [ATP]
relative ATP binding: Msh2–Msh6(K988A) and Msh2–Msh6(K988R) mutant complexes had partial ATP binding defects at the Msh2 subunit
